From ChEMBL document CHEMBL1142795, “Synthesis, structure-activity relationships, and anxiolytic activity of 7-aryl-6,7-dihydroimidazoimidazole corticotropin-releasing factor 1 receptor antagonists” (Bioorg Med Chem Lett, 2005)
pKi: −log10 of the molar value.

Test system: not listed separately
Assay: Maximum concentration upon oral administration of 10 mg/kg of dose in a dosing vehicle of 10/10/80 cremaphor/DMSO/water
Format: ADME, organism-based
Parameters: dose 10 mg/kg, route oral
Details: in vivo

| Compound | Cmax |
| --- | --- |
| CCCN(CC1CC1)C(=O)c1c(CC)nc2n1CCN2c1c(C)cc(C)cc1C | 0.25 µg/mL |

Test system: not listed separately
Assay: Volume of distribution upon intravenous administration of 2 mg/kg of dose in a dosing vehicle of 10/10/80 cremaphor/DMSO/water
Format: ADME, organism-based
Parameters: dose 2 mg/kg, route intravenous
Details: in vivo

| Compound | Vd |
| --- | --- |
| CCCN(CC1CC1)C(=O)c1c(CC)nc2n1CCN2c1c(C)cc(C)cc1C | 5.7 L/kg |

Target: T1, Corticotropin-releasing factor receptor 1 (Homo sapiens, UniProt P34998)
T1 sequence (P34998 whole entry): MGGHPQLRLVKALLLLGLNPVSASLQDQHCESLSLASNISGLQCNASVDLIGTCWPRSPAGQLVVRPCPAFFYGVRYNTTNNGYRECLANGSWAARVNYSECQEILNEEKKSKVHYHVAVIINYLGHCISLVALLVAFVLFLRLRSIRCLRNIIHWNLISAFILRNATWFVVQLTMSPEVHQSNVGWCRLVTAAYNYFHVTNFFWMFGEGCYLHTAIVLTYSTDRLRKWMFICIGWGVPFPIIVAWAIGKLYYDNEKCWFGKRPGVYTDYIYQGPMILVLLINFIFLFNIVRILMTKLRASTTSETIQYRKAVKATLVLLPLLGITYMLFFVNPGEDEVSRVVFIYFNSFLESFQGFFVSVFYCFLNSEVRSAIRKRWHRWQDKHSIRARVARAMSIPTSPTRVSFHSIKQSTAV
Assay: Displacement of [125I]-Tyr-o- CRF from human corticotropin releasing factor receptor 1 expressed in IMR-32 cells
Format: cell-based
Details: not given

| Compound | pKi |
| --- | --- |
| CCc1nc2n(c1C(=O)N(CC1CC1)CC1CC1)CCN2c1c(C)cc(C)cc1C | 7.17 |
| CCc1nc2n(c1C(=O)Nc1ccccc1)CCN2c1c(C)cc(C)cc1C | < 5.00 |
| CCCCN(CC)C(=O)c1c(CC)nc2n1CCN2c1c(C)cc(C)cc1C | 6.54 |
| CCCN(CCC1CC1)C(=O)c1c(CC)nc2n1CCN2c1c(C)cc(C)cc1C | 6.11 |
| CCc1nc2n(c1C(=O)N1CCN(C(C)=O)CC1)CCN2c1c(C)cc(C)cc1C | < 5.00 |
| CCCN(Cc1c(CC)nc2n1CCN2c1c(C)cc(C)cc1C)CC1CC1 | 4.72 |
| CCc1nc2n(c1C(=O)N(Cc1ccccc1)Cc1ccccc1)CCN2c1c(C)cc(C)cc1C | < 5.00 |
| CCCN(CC1CC1)C(=O)c1c(C)nc2n1CCN2c1c(C)cc(C)cc1C | 6.66 |
| CCCN(Cc1ccccc1)C(=O)c1c(CC)nc2n1CCN2c1c(C)cc(C)cc1C | 5.39 |
| C=CCN(CC=C)C(=O)c1c(CC)nc2n1CCN2c1c(C)cc(C)cc1C | 5.52 |
| CCc1nc2n(c1C(=O)N(CC1CC1)CC(F)(F)F)CCN2c1ccc(C(C)C)cc1Br | 6.57 |
| CCCN(Cc1ccc(Cl)cc1)C(=O)c1c(CC)nc2n1CCN2c1c(C)cc(C)cc1C | 5.52 |
| CCc1nc2n(c1C(=O)N(CCC(F)(F)F)Cc1ccc(Cl)cc1)CCN2c1c(C)cc(C)cc1C | 6.57 |
| CCc1nc2n(c1C(=O)N(CC1CC1)CC(F)(F)C(F)(F)F)CCN2c1c(C)cc(C)cc1C | 7.20 |
| CCc1nc2n(c1C(=O)N(CC)CC1CC1)CCN2c1c(C)cc(C)cc1C | 7.03 |
| CCc1nc2n(c1C(=O)N(CC)CCC1CC1)CCN2c1c(C)cc(C)cc1C | 6.21 |
| CCc1nc2n(c1C(=O)N(CC)CCN(C)C)CCN2c1c(C)cc(C)cc1C | < 5.00 |
| CCc1nc2n(c1C(=O)N(CCC1CC1)CCC(F)(F)F)CCN2c1c(C)cc(C)cc1C | 6.19 |
| CCCN(Cc1cccc(F)c1)C(=O)c1c(CC)nc2n1CCN2c1c(C)cc(C)cc1C | 5.38 |

| Compound | pKi |
| --- | --- |
| CCCN(CC1CC1)C(=O)c1c(CC)nc2n1CCN2c1c(C)cc(C)cc1Br | 6.90 |
| CCc1nc2n(c1C(=O)N(CC1CC1)CC(F)(F)F)CCN2c1c(C)cc(C)cc1Br | 7.59 |
| CCc1nc2n(c1C(=O)N1CCN(c3ccccc3F)CC1)CCN2c1c(C)cc(C)cc1C | < 5.00 |
| CCCN(CC1CC1)C(=O)c1c(CC)nc2n1CCN2c1ccc(C(C)C)cc1Br | 5.81 |
| CCc1nc2n(c1C(=O)N1CCNCC1)CCN2c1c(C)cc(C)cc1C | < 5.00 |
| CCCN(CCC(F)(F)F)C(=O)c1c(CC)nc2n1CCN2c1c(C)cc(C)cc1C | 6.66 |
| CCCN(CCc1ccccc1)C(=O)c1c(CC)nc2n1CCN2c1c(C)cc(C)cc1C | 6.66 |
| CCCN(CC1CC1)C(=O)c1c(CC)nc2n1CCN2c1c(C)cc(Cl)cc1Cl | 7.12 |
| CCc1nc2n(c1C(=O)N(CCC(F)(F)F)Cc1ccccc1)CCN2c1c(C)cc(C)cc1C | 6.18 |
| CCc1nc2n(c1C(=O)N(CC1CC1)CC(F)(F)F)CCN2c1c(C)cc(C)cc1C | 7.39 |
| CCc1nc2n(c1C(=O)N(CC1CC1)CC(F)(F)F)CCN2c1c(C)cc(C)cc1Cl | 7.39 |
| CCCN(CC1CC1)C(=O)c1c(CC)nc2n1CCN2c1c(C)cc(C)cc1C | 7.38 |
| CCCN(Cc1c(C)nc2n1CCN2c1c(C)cc(C)cc1C)CC1CC1 | 5.18 |
| CCc1nc2n(c1C(=O)N(CC1CC1)CC(F)(F)F)CCN2c1c(C)cc(Cl)cc1Cl | 7.62 |
| CCCN(CCC)C(=O)c1c(CC)nc2n1CCN2c1c(C)cc(C)cc1C | 7.00 |
| C=CCN(CCC)C(=O)c1c(CC)nc2n1CCN2c1c(C)cc(C)cc1C | 6.13 |
| CCCN(CC1CC1)C(=O)c1c(CC)nc2n1CCN2c1c(C)cc(C)cc1Cl | 7.03 |
| CCCN(CC(F)(F)F)C(=O)c1c(CC)nc2n1CCN2c1c(C)cc(C)cc1C | 7.21 |
| CCc1nc2n(c1C(=O)N(CCC(F)(F)F)CC1CC1)CCN2c1c(C)cc(C)cc1C | 7.14 |

Test system: not listed separately
Assay: Bioavailability upon oral administration of 10 mg/kg of dose in a dosing vehicle of 10/10/80 cremaphor/DMSO/water
Format: ADME, organism-based
Details: eutheria, in vivo

| Compound | bioavailability |
| --- | --- |
| CCCN(CC1CC1)C(=O)c1c(CC)nc2n1CCN2c1c(C)cc(C)cc1C | 32% |

Test system: not listed separately
Assay: Brain to plasma (2 hours) concentration ratio upon intravenous administration of 2 mg/kg of dose in a dosing vehicle of 10/10/80 cremaphor/DMSO/water
Format: ADME, organism-based
Parameters: dose 2 mg/kg, route intravenous
Details: brain and plasma, read-out: B/P

| Compound | Kp at 2 h |
| --- | --- |
| CCCN(CC1CC1)C(=O)c1c(CC)nc2n1CCN2c1c(C)cc(C)cc1C | 0.21 |

Test system: not listed separately
Assay: Area under curve (0-24 hr) upon oral administration of 10 mg/kg of dose in a dosing vehicle of 10/10/80 cremaphor/DMSO/water
Format: ADME, organism-based
Parameters: time < 24 hr, dose 10 mg/kg, route oral
Details: in vivo

| Compound | AUC(0-t) at 24 h |
| --- | --- |
| CCCN(CC1CC1)C(=O)c1c(CC)nc2n1CCN2c1c(C)cc(C)cc1C | 1.52 µg·h/mL |

Test system: not listed separately
Assay: Clearance upon intravenous administration of 2 mg/kg of dose in a dosing vehicle of 10/10/80 cremaphor/DMSO/water
Format: ADME, organism-based
Parameters: dose 2 mg/kg, route intravenous
Details: in vivo

| Compound | clearance |
| --- | --- |
| CCCN(CC1CC1)C(=O)c1c(CC)nc2n1CCN2c1c(C)cc(C)cc1C | 2.1 L/h/kg |

Test system: not listed separately
Assay: Maximum time to reach peak concentration upon oral administration of 10 mg/kg of dose in a dosing vehicle of 10/10/80 cremaphor/DMSO/water
Format: ADME, organism-based
Parameters: dose 10 mg/kg, route oral
Details: in vivo

| Compound | Tmax |
| --- | --- |
| CCCN(CC1CC1)C(=O)c1c(CC)nc2n1CCN2c1c(C)cc(C)cc1C | 4 h |
